The target in experiment [1] is T1, IK1 channel (Homo sapiens, UniProt O15554). Nature of the experiment: IK1 channel opening activity measurement test (membrane potential, human IK1 channel expressing CHO dhfr- cells). Type of experiment: cell-based. Further details: expressed in transfected cells; host or cells: CHO dhfr- cells. To be noted: NS-309 0.2 μM = 100%, DMSO = 0%, read-out: EC50 of IK1 channel opening action. On the procedure: (§1) Cells ((1) T84 cells (which is known as IK1 channel expressing cells) or (2) human IK1 channel expressing cells (transgene: NM_002250.2, use cells: CHO dhfr-)) were seeded in a 384-well microplate so as to be 12000 cells/well. After incubation overnight, a medium was suctioned, and 20 μL of FLIPR Membrane Potential Assay Reagent (FLIPR Membrane Potential Assay kit, manufactured by Molecular Devices LLC) was added to the medium, followed by incubation at room temperature for 1 hour. Fluorescence intensity was measured at 530 nm/590 nm, which was set as a pre value. 20 μL of a buffer solution containing a test drug (which contains 0.01% pluronic acid and 20 mM Hepes-NaOH (pH7.4); 0.2% CHAPS in HBSS) was added, followed by incubation at room temperature for 1 hour, and a post value was measured. Activity of the test drug was determined from relative values where NS-309 (6,7-dichloro-1H-indole-2,3-dione 3-oxime, manufactured by Sigma-Aldrich Co., LLC; 0.2 μM; DMSO solution) treatment was set as 100%, and DMSO treatment was set as 0%. Activity value (%) at each concentration was plotted against a concentration of the test drug, and EC50 value was calculated by a Logistic regression method.
(§2) The EC50 values of an IK1 channel opening action of the several representative Example compounds of the invention are shown in the following Table (in the Table, No. means a number, and Ex means an Example compound number. The same shall apply hereinafter.). […] With P<0.05 in each assay, it was determined that there was a significant difference.

For experiment [2], the target named is T1, IK1 channel. In words: IK1 channel opening activity measurement test (membrane potential, T84 cells). Type of experiment: cell-based. More on the design: T84 cells (which is known as IK1 channel expressing cells); endogenous in cells; host or cells: T84 cells. To be noted: NS-309 0.2 μM = 100%, DMSO = 0%, read-out: EC50 of IK1 channel opening action. On the procedure: as §1, §2

In the next experiment the test system is vagotomized rat. In words: Action to tenderness threshold value in vagotomized rat. Type of experiment: in vivo. To be noted: for significance versus solvent group: at the dose shown in Table 6, P<0.05; for Improvement rate (tenderness threshold value): male SD rats, 3 mg/kg oral, after 2 hours, sham = 100%, surgery solvent group = 0%. How it is done: (§3) Moreover, in Test Examples 2 to 6, a 0.5% methyl cellulose suspension was used as a test drug.
The model was made based on Neuroscience, 2009, vol. 164, p. 1252-1262. Male SD rats (provided by Japan SLC, Inc, Japan) were anesthetized with somnopentyl, followed by shaving near a xiphisternum. Incision was performed along the midline from the xiphisternum to the tail side. A stomach and an esophagus under a diaphragm were exposed, and vagus nerves on both sides of the esophagus were transected. Muscle and skin were sutured in order. 1 to 3 weeks after the surgery, a decrease in the tenderness threshold value was confirmed. The solvent or the test drug was orally administered, and after 2 hours, the tenderness threshold value was measured using Randall-Selitto equipment (manufactured by Muromachi Kikai Co., Ltd.) in a gastrocnemius muscle. A significant difference test of a solvent group and a test drug group was performed in comparison between groups using Student's t-test or Dunnett multiple comparison test. With P<0.05 in each assay, it was determined that there was a significant difference.
Effectiveness of several representative Example compounds of the invention is shown in the following Table as an improvement rate when a value of a group in which the solvent was administered into a sham surgery group was set as 100%, and a value of a group in which the solvent was administered into a surgery group was set as 0%.

In experiment [3] the test system is adjuvant-induced arthritis rat. In words: Inhibitory effect on hindlimb weight distribution in adjuvant-induced arthritis rat. It is filed as in vivo. To be noted: for significance versus solvent group: at the dose shown in Table 4, P<0.05; for MED (minimum effective dose): female Lewis rat, oral, 1 or 2 hours after administration, hindlimb weight distribution. How it is done:
as §3
This model is a model to study inflammatory pain. 50 μL of killed Mycobacterium tuberculosis H37Ra (manufactured by DIFCO Laboratories) suspended in a liquid paraffin was subcutaneously administered into a right hindlimb footpad of a female Lewis rat (provided by Charles River Laboratories, Japan) so as to be 10 mg/mL. Next day, the solvent or the test drug was orally administered. After 1 or 2 hours, the weight distribution between the left and the right hindlimbs was measured using an Incapacitance Tester (manufactured by Linton Instrumentation). A significant difference test of a solvent group and a test drug group was performed in comparison between groups using Student's t-test or Dunnett multiple comparison test. With P<0.05 in each assay, it was determined that there was a significant difference.
Effectiveness in the adjuvant-induced arthritis rat test of the several representative Example compounds of the invention is shown in the following Table.

Experiment [4] relates to monoiodoacetate-induced osteoarthritis model. Nature of the experiment: Inhibitory effect on hindlimb weight distribution in monoiodoacetate-induced osteoarthritis model. It is filed as in vivo, rat. To be noted: for significance versus solvent group: at the dose shown in Table 5, P<0.05; for Improvement rate: male SD rats, 1 mg/kg oral, 3 weeks after MIA, 1 or 2 hours after administration. On the procedure: as §3
This model is a model of osteoarthritis, and action to osteoarthritis pain can be evaluated using the model. This test was performed based on The Journal of Pharmacology and Experimental Therapeutics, 2010, vol. 334, p. 955-963. Under isoflurane anesthesia, 1 mg/site of monoiodoacetate (hereinafter referred to as MIA) (manufactured by Sigma-Aldrich Co., LLC) solution was singly administered into the right knee joint cavity of male SD rats (provided by Charles River Laboratories, Japan). MIA was dissolved in physiological saline, and 50 μL thereof was administered using a 27 gauge×0.5 inches needle. 3 weeks after the MIA administration, the solvent or the test drug was orally administered. After 1 or 2 hours, the weight distribution between the left and the right hindlimb was measured using an Incapacitance Tester (manufactured by Linton Instrumentation). A significant difference test of a solvent group and a test drug group was performed in comparison between groups using Student's t-test or Dunnett multiple comparison test. With P<0.05 in each assay, it was determined that there was a significant difference.
Effectiveness with respect to a monoiodoacetate-induced osteoarthritis model of the several representative Example compounds of the invention is shown in the following Table.

In experiment [5] the test system is abdominal pain by rat colorectal distension. In words: Effect on abdominal pain by rat colorectal distension. Type of experiment: in vivo. To be noted: for MED (minimum effective dose): Wistar male rats, oral, 1 hour after administration, abdominal flexion behavior; for significance versus solvent group: at the dose shown in Table 3, P<0.05. How it is done: as §3
After Wistar male rats (CLEA Japan, Inc.) were anesthetized with isoflurane, a balloon was inserted into the colon. After awakening, the test drug was orally administered, and after 1 hour, abdominal pain induced by balloon expansion was measured as an indicator of an abdominal flexion behavior. Each stimulus (15, 30, 45, 60 mmHg) was repeatedly performed for 5 minutes at 5-minute intervals. A significant difference test of a solvent group and a test drug group was performed in comparison between groups using Student's t-test or Dunnett multiple comparison test. With P<0.05 in each assay, it was determined that there was a significant difference.
Effectiveness in the abdominal pain test by rat colorectal distension of the several representative Example compounds of the invention is shown in the following Table (In the Table, MED means a minimum effective dose. The same shall apply hereinafter.).

The subject of experiment [6] is reserpine-induced myalgia model. In words: Effect on tenderness threshold value in reserpine-induced myalgia model. Type of experiment: in vivo, rat. How it is done: as §3
This model is a model which imitates a fibromyalgia disease. This test was performed based on Pain, 2009, vol. 146, p 26-33. Reserpine (1 mg/kg) was subcutaneously administered into male SD rats (provided by Japan SLC, Inc, Japan) once a day for 3 days. After 5 days, the solvent or the test drug was orally administered. After 2 hours, a tenderness threshold value was measured using Randall-Selitto equipment (manufactured by Muromachi Kikai Co., Ltd.) in a gastrocnemius muscle. A significant difference test of a solvent group and a test drug-administered group was performed in comparison between groups using Student's t-test or Dunnett multiple comparison test. Here, a value obtained by administering the solvent to a normal rat to which reserpine was not administered was set as 100%, and a value of the reserpine group into which the solvent was administered was set as 0%. With P<0.05 in each assay, it was determined that there was a significant difference.

The values below come from patent US9399038B2, “Benzothiophene compound” (ASTELLAS PHARMA INC., priority 2013, dated 2016).

Structures can show the parent of a compound that is named as a salt.

A word on the EC50: it is the midpoint of the concentration-response curve. `Cc1sc2cc(Cl)c(F)cc2c1-c1ccc(N2CCO[C@H](CNC(C)(C)C)C2)c(C(=O)O)c1` [Ex19]: the EC50 is 5.5 nM on IK1 channel [1] and 1500 nM at IK1 channel [2].
The matching figures for `Cc1sc2cc(F)ccc2c1-c1ccc(N2CCO[C@H](CNC3CCC3)C2)c(C(=O)O)c1` [Ex13]: 52 nM and 3760 nM.
Regarding `O=C(O)c1cc(-c2csc3cc(C(F)(F)F)c(Cl)cc23)ccc1N1CCO[C@H](CNC2CCC2)C1` [Ex15, 5-[5-chloro-6-(trifluoromethyl)-1-benzothiophen-3-yl]-2-{(2R)-2-[(cyclobutylamino)methyl]morpholin-4-yl}benzoic acid hydrochloride], in the experiment with vagotomized rat, the “significance versus solvent group” value is reported as “significant activity” and the “Improvement rate (tenderness threshold value)” value was >50% (3 mg/kg).
On to `CC(C)(C)NC[C@H]1CCCN(c2ccc(-c3csc4cc(C(F)(F)F)ccc34)cc2C(=O)O)C1` [Ex14, 2-{(3R)-3-[(tert-butylamino)methyl]piperidin-1-yl}-5-[6-(trifluoromethyl)-1-benzothiophen-3-yl]benzoic acid hydrochloride], for which the EC50 at IK1 channel [1] worked out at 28 nM; on IK1 channel [2] it was 3170 nM. For the same compound, the “significance versus solvent group” value (in experiment [3]; in the experiment with vagotomized rat; in experiment [4]) was “significant activity” throughout. The “MED (minimum effective dose)” value in experiment [3] is 1 mg/kg. The “Improvement rate (tenderness threshold value)” value with vagotomized rat is recorded as >50% (3 mg/kg). Further, the Improvement rate in experiment [4] was 42% (1 mg/kg).
On to `Cc1sc2cc(Cl)c(F)cc2c1-c1ccc(N2CCO[C@H](CNC3CCC3)C2)c(C(=O)O)c1` [Ex18, 5-(6-chloro-5-fluoro-2-methyl-1-benzothiophen-3-yl)-2-{(2R)-2-[(cyclobutylamino)methyl]morpholin-4-yl}benzoic acid hydrochloride], for which the “MED (minimum effective dose)” value is recorded as 0.3 mg/kg in experiment [5] and 3 mg/kg in experiment [3]. Further, the “significance versus solvent group” value (in experiment [5]; in experiment [3]; in the experiment on vagotomized rat; in experiment [4]) was “significant activity” in each case. Further, the results for the EC50 at IK1 channel [1] and at IK1 channel [2] were 48 nM and 920 nM, respectively. Also, the “Improvement rate (tenderness threshold value)” value with vagotomized rat was >50% (3 mg/kg). For the same compound, the Improvement rate in experiment [4] is given as >50% (1 mg/kg).
Turning to `Cc1sc2cc(Cl)ccc2c1-c1ccc(N2CCO[C@H](CNC3CCC3)C2)c(C(=O)O)c1` [Ex10, 5-(6-chloro-2-methyl-1-benzothiophen-3-yl)-2-{(2R)-2-[(cyclobutylamino)methyl]morpholin-4-yl}benzoic acid monohydrochloride], the “MED (minimum effective dose)” value in experiment [5] came to 0.3 mg/kg; in experiment [3] it was 3 mg/kg. The “significance versus solvent group” value in experiment [5] is “significant activity”; in experiment [6] (1 mg/kg, P<0.05), “significant activity”; in experiment [3], “significant activity”; in the experiment on vagotomized rat, “significant activity”; in experiment [4], “significant activity”. For the same compound, the “Improvement rate (tenderness threshold value)” value in experiment [6] (male SD rats, 1 mg/kg oral, after 2 hours, normal rat = 100%, reserpine solvent group = 0%) was “higher than 50%”; with vagotomized rat, >50% (3 mg/kg). Moreover, the EC50 came out at 93 nM on IK1 channel [1] and 3890 nM on IK1 channel [2]. The Improvement rate in experiment [4] is listed as >50% (l mg/kg).
Turning to `Cc1sc2cc(Cl)ccc2c1-c1ccc(N2CCO[C@H](CNC(C)(C)C)C2)c(C(=O)O)c1` [Ex16], the EC50 at IK1 channel [1] stood at 33 nM; at IK1 channel [2], 8040 nM.
The corresponding values for `O=C(O)c1cc(-c2csc3cc(C(F)(F)F)ccc23)ccc1N1CCO[C@H](CNC2CCC2)C1` [Ex12] are 24 nM and 1750 nM.
Consider `O=C(O)c1cc(-c2c(F)sc3cc(Cl)ccc23)ccc1N1CCO[C@H](CNC2CCC2)C1` [Ex11, 5-(6-chloro-2-fluoro-1-benzothiophen-3-yl)-2-{(2R)-2-[(cyclobutylamino)methyl]morpholin-4-yl}benzoic acid hydrochloride], for which the EC50 at IK1 channel [1] came out at 11 nM. Further, the EC50 on IK1 channel [2] is 3070 nM. In experiment [3], the “significance versus solvent group” value was “significant activity” and the “MED (minimum effective dose)” value is recorded as 3 mg/kg. For the same compound, in experiment [4], the “significance versus solvent group” value is reported as “significant activity” and the Improvement rate is >50% (l mg/kg).
